Data published in patent US9850382B1, “Unsymmetrical cyanine dyes and their application” (priority 2016, dated 2017).

Tests used:
nucleic acids = details: cited from earlier work
DNA marker = assay: Detection of nucleic acids on microarrays, DNA spots; assay type: binding; details: ~1 μM dye in 1×TE, 5 minutes, 633 nm laser excitation
Procedure: (§1) A microarray consisting of a dilution series of DNA marker and rRNA is printed on a slide using a microarray spotter. The slide is equilibrated in 1×SSC buffer to remove any excess printing buffer, and then soaked with compound 9 solution at ˜1 μM final concentration in 1×TE buffer for 5 minutes, followed by a 5 minute wash in 1×TE buffer to remove any excess compound. The slide is then imaged using a array scaner using 633 nm laser excitation.

mixture of RNA and DNA = assay: Selectivity test on a mixture of RNA and DNA (total 1000 ng/mL); assay type: binding; details: dye 400 nM, RNA+DNA total 1000 ng/mL in 1×TE, Ex/Em=620/660 nm, FIG. 2
Procedure: (§2) A series of RNA and DNA dilutions up to 1000 ng/mL in 1×TE buffer is added to the wells of a 96-well microplate. A series of mixture of RNA and DNA is prepared according to the following table, and is added to separate wells.
(§3) Compound 9 is added to each well at a final concentration of 400 nM. The fluorescence intensity is measured on a fluorescence plate reader with Ex/Em=620/660 nm.

rRNA [1] = assay: Microplate fluorescence intensity with RNA dilutions; assay type: binding; details: dye 400 nM, RNA up to 1000 ng/mL in 1×TE, Ex/Em=620/660 nm, FIG. 2
Procedure: as §2, §3

[2] = tested on: mixture of RNA and DNA at 1:1 ratio; assay: Selectivity test on a 1:1 mixture of RNA and DNA; assay type: binding; details: dye 100 nM, RNA:DNA 1:1 up to 200 ng/mL each in 1×TE, Ex/Em=620/660 nm, FIG. 3
Procedure: In another experiment, a series of RNA and DNA dilutions up to 200 ng/mL in 1×TE buffer is added to the wells of a 96-well microplate. A series of mixture of RNA and DNA at 1:1 ratio is prepared according to the following table, and is added to separate wells.
Compound 9 is added to each well at a final concentration of 100 nM. The fluorescence intensity is measured on a fluorescence plate reader with Ex/Em=620/660 nm.

calf thymus DNA = assay: Microplate fluorescence intensity with DNA dilutions; assay type: binding; details: dye 400 nM, DNA up to 1000 ng/mL in 1×TE, Ex/Em=620/660 nm, FIG. 2
Procedure: as §2, §3

rRNA and 1 kb DNA Ladder = assay: Detection of nucleic acids in electrophoretic gels (post-gel staining); assay type: binding; details: 1% agarose gel, ~1 μM dye in 1×TE, ~30 min staining, 633 nm laser, 675 nm filter
Procedure: Agarose gels (1% agarose) are prepared according to a standard protocol. Serial two-fold dilutions of 1 kb DNA Ladder from Invitrogen and rRNA from Roche are prepared, and the resulting DNA and RNA samples are loaded onto an agarose gel. The DNA and RNA samples are electrophoretically separated in 1×TBE buffer using a standard protocol. A stock solution of compound 9 is diluted into ˜1 μM final concentration in 1×TE buffer. The agarose gels are incubated in the staining solutions for ˜30 min to stain the gels. The stained nucleic acid bands are recorded using Fuji FLA-3000 gel scanner, using 633 nm laser illumination, and a 675 nm filter.

rRNA [3] = assay: Detection of nucleic acids on microarrays, rRNA spots; assay type: binding; details: ~1 μM dye in 1×TE, 5 minutes, 633 nm laser excitation
Procedure: as §1

rRNA, tRNA and mRNA = assay: Selectivity test on different source of RNA; assay type: binding; details: dye 400 nM, RNA up to 1000 ng/mL in 1×TE, Ex/Em=620/660 nm, FIG. 4
Procedure: A series of rRNA, tRNA and mRNA dilutions up to 1000 ng/mL in 1×TE buffer is added to the wells of a 96-well microplate. Compound 9 is added to each well at a final concentration of 400 nM. The fluorescence intensity is measured on a fluorescence plate reader with Ex/Em=620/660 nm.

[4] = tested on: E. coli rRNA versus calf thymus DNA; assay: Selectivity test on RNA vs dsDNA (emission spectra in TE buffer); assay type: binding; details: 10 μg/mL calf thymus DNA or E. coli rRNA in 1×TE, 5 μL of 100 μM dye per mL, excitation 620 nm, FIG. 1
Procedure: A stock solution of compound 9 was prepared at 100 μM concentration in DMSO. Calf thymus DNA, and E. coli rRNA were prepared at 10 μg/mL concentration in 1×TE buffer, individually. To 1 mL of DNA solution and 1 mL of RNA solution was added with 5 μL of compound 9, individually. The emission spectrum associated with each of the solutions was scaned at excitation wavelength 620 nm.

Compound	detection sensitivity on nucleic acids (nucleic acids)	staining of DNA spots on microarray (DNA marker)	fluorescence intensity of mixture of RNA and DNA compared with RNA alone (mixture of RNA and DNA)	fluorescence intensity response with RNA concentration (rRNA [1])	selectivity on RNA in a mixture of RNA and DNA [2]	fluorescence signal with DNA alone (calf thymus DNA)	fluorescence signal of RNA bands versus corresponding DNA bands in gel (rRNA and 1 kb DNA Ladder)	staining of rRNA spots on microarray (rRNA [3])	fluorescent signal when associated with rRNA, tRNA and mRNA (rRNA, tRNA and mRNA)	selectivity for RNA versus DNA (fluorescence emission spectra) [4]
CN1C(=Cc2cc[n+](C)c3ccccc23)Sc2ccccc21 [Thiazole Orange, reference compound]	low detection sensitivity	–	–	–	–	–	–	–	–	–
CCN(CC)Cc1ccc(C(=C\c2sc3ccc(S(=O)(=O)NCCCS(=O)(=O)[O-])cc3[n+]2C)/C=C2\C=CN(C)c3ccccc32)cc1 [Compound 9]	–	undetectable	the same for the corresponding concentration of RNA	nice linear response	excellent selectivity	little to no signal	much brighter	stained	comparable fluorescent signal	good selectivity
CCCN1C=C/C(=C\c2sc3ccccc3[n+]2C)c2ccccc21 [SYBR Safe]	low sensitive	–	–	–	–	–	–	–	–	–
